Measurements taken from US6784165B1, “Treatment of heart rhythm disturbances with N6-substituted-5′-(N-substituted) carboxamidoadenosines” (Aderis Pharmaceuticals, Inc., priority 1999, dated 2004).
Where two headings read alike, the source gives them in different places.

Columns and labels:
[1] = Oral bioavailability estimated from bradycardia AUC oral vs intravenous in conscious rats; type: in vivo, rat; conditions: for bioavailability: male, Sprague-Dawley, rat, in vivo
Source text: (§1) Concentration dose-effect curve data were fitted to a sigmoid curve using Graphpad PRIZM™ software to obtain the concentration or dose of test compound that produces 50% of the maximal obtainable response, in vitro EC50 or in vivo ED50 values, for activation of the adenosine A1 receptor. Responses measured to each dose were the plateau negative inotropic response to cumulative additions of test compound in the isolated left atria and the peak bradycardia in response to bolus intravenous injections of test compound in conscious rats. Oral bioavailability was estimated from pharmacodynamic responses using the expression: (Response AUCoral/Response AUCiv)(Doseiv/Doseoral), where Response AUC is the area under the curve for test compound-induced bradycardia over time.
(§2) Male Sprague-Dawley rats were anesthetized with sodium pentobarbital 50 mg/kg i.p., and indwelling catheters were surgically implanted in the carotid artery and jugular vein two days prior to each experiment. During all subsequent experiments, rats were conscious and unrestrained. The carotid artery cannula was attached to a pressure transducer and blood pressure was recorded continuously throughout each experiment using a Grass polygraph. Heart rate was derived from the blood pressure signal using a Grass tachygraph. The measured parameters were allowed from 30 to 90 minutes to stabilize before the administration of test compound.
(§3) Test compounds were administered either by oral gavage using a curved, bulbed oral dosing cannula, or by intravenous administration via the jugular vein indwelling catheter. Rats dosed orally were fasted overnight before dosing, with water available ad libitum. Because the heart rate responses following intravenous administration of test compound rapidly returned to baseline, more than one dose of test compound could be administered to each rat. However, the responses to oral administration of test compounds were of a prolonged duration and therefore only a single dose could be administered to each rat.
A comparison of the area under the bradycardia vs. time curve (AUC) following intravenous administration with the AUC following oral administration was used as a measure of oral bioavailability.

adenosine A1 receptor [2] = biological target: T1, adenosine A1 receptor (Rattus norvegicus, UniProt P25099); assay: Peak bradycardia after bolus intravenous injection in conscious rats; type: in vivo; parameters: from tissue; host or cells: whole animal (conscious Sprague-Dawley rats); conditions: bolus intravenous injections
T1 sequence (P25099 1-326): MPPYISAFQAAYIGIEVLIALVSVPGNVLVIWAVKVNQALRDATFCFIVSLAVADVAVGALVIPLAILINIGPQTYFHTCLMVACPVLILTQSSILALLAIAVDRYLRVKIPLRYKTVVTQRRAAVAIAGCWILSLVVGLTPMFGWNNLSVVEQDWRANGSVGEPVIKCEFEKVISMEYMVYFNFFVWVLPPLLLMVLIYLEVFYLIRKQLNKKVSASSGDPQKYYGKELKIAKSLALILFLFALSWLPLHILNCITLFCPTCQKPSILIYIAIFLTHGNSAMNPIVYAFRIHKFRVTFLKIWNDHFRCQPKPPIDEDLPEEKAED
Source text: as §1, §2, §3

adenosine A1 receptor [3] = biological target: T1, adenosine A1 receptor; assay: Negative inotropic response in electrically stimulated rat isolated left atria (isoproterenol-stimulated); parameters: from tissue; host or cells: whole animal (conscious Sprague-Dawley rats); conditions: plateau negative inotropic response, 1 Hz, isoproterenol 10^−8 M
Source text: as §1
Male Sprague-Dawley rats weighing 200-350 grams were sacrificed and the hearts rapidly removed and placed in a warmed Krebs-Henseleit buffer solution. The left atria were dissected free from the hearts and suspended in 30 mL jacketed isolated organ baths filled with Krebs-Henseleit buffer, oxygenated with 95% O2/5% CO2 and maintained at 37° C. Tissues were connected to a force displacement transducer under a resting tension of 1 gram. Atria were stimulated electrically at 1 Hz, 1 msec duration and supramaximal voltage to produce regular contractions of tissue.
Adenosine A1 agonists were added to the baths at increasing cumulative concentrations until a maximal decrease in the force of contraction was obtained. Because adenosine A1 agonists have only a small direct negative inotropic action in rat atria, it was necessary to stimulate β-adrenergic receptors to produce positive inotropy in order to maximize the negative intropic response and thereby facilitate measurement. Under these conditions, adenosine A1 agonists acting at A1 receptors indirectly reduce the β-adrenergic mediated positive inotropy. Accordingly, the β-adrenergic agonist isoproterenol (10^−8 M) was added to the organ baths approximately 15 minutes before the addition of the adenosine A1 agonist.

Compound	bioavailability [1]	ED50 (adenosine A1 receptor [2]; rat, read-out: ED50)	EC50 (adenosine A1 receptor [3])	Oral Bioavailability [1]	ED50 (adenosine A1 receptor [2])
CC(C)(C)NC(=O)[C@H]1O[C@@H](n2cnc3c(NC4CCCC4)ncnc32)[C@H](O)[C@@H]1O [F, N^6-cyclopentyl-5′-(N-t-butyl)carboxamidoadenosine]	34%	0.363 µmol/kg	72.4 nM		
CCNC(=O)[C@H]1O[C@@H](n2cnc3c(NC(CC)CC)ncnc32)[C@H](O)[C@@H]1O [I, N^6-(3-pentyl)-5′-(N-ethyl)carboxamidoadenosine]	20%	0.0079 µmol/kg	7.9 nM		
O=C(NCCO)C1OC(n2cnc3c(NC4CC5CCC4C5)ncnc32)C(O)C1O (stereo not drawn) [H]			3.8 nM	2.3%	0.0034 µmol/kg
CCC(CC)Nc1ncnc2c1ncn2[C@@H]1O[C@H](C(=O)NCCO)[C@@H](O)[C@H]1O [J]	9.9%	0.0083 µmol/kg	21.8 nM		

Results, then the molecule that gave them:

bioavailability [1]	ED50 (adenosine A1 receptor [2]; rat, read-out: ED50)	EC50 (adenosine A1 receptor [3])	Oral Bioavailability [1]	ED50 (adenosine A1 receptor [2])	Compound
14%	0.0323 µmol/kg	25.1 nM			CCCNC(=O)[C@H]1O[C@@H](n2cnc3c(NC4CCCC4)ncnc32)[C@H](O)[C@@H]1O [G]
20%	0.0039 µmol/kg	19.1 nM			CNC(=O)[C@H]1O[C@@H](n2cnc3c(NC4CCCC4)ncnc32)[C@H](O)[C@@H]1O [D, N^6-cyclopentyl-5′-(N-methyl)carboxamidoadenosine]
28%	0.0034 µmol/kg	11 nM			CC(C)NC(=O)[C@H]1O[C@@H](n2cnc3c(NC4CCCC4)ncnc32)[C@H](O)[C@@H]1O [E]
8.4%	0.0074 µmol/kg	11.2 nM			O=C(NCCO)[C@H]1O[C@@H](n2cnc3c(NC4CCCC4)ncnc32)[C@H](O)[C@@H]1O [B]
38%	0.0093 µmol/kg	3.8 nM			O=C(NC1CC1)[C@H]1O[C@@H](n2cnc3c(NC4CCCC4)ncnc32)[C@H](O)[C@@H]1O [C, N^6-cyclopentyl-5′-(N-cyclopropyl)carboxamidoadenosine]
